Target: T1, AMPA receptor (human GluR1 flip/stargazin expressed in CHO-K1 cells) (Homo sapiens, UniProt P42261)
T1 construct: expressed in transfected cells; host or cells: CHO-K1
Experiment: Assay of AMPA receptor potentiation by compounds, using calcium influx as an indicator
Type: cell-based
Conditions: compound 30 μM with glutamic acid final concentration 3 mM, 100% = glutamic acid 3 mM + 300 μM cyclothiazide, 0% = glutamic acid only, change over 3 minutes
Text: (1) Construction of Expression Genes
Human GluR1 flip cDNA was amplified by PGR using the forward primer ACTGAATTCGCC […] (SEQ ID: 1), and the reverse primer CCGCGGC […] (SEQ ID: 2), which had been artificially synthesized using human brain-derived cDNA (BD Bioscience) as template. The amplified product was digested with the restriction enzymes EcoRI and NotI. (Takara Shuzo Co., Ltd.), and was then incorporated at the same site of peDNA3.1(+) (Invitrogen) to construct; the pcDNA3.1(+)/human GluR1 flip gene. Human stargazin cDNA was amplified by PCR using the forward primer GGTC TCGAGOCCACCATGGOGCTGTTTGATCGAGGTGTTCA (SEQ ID: δ 3), and the reverse primer […] (SEQ ID: 4), which had been artificially synthesized using human hippocampal cDNA as template. The amplified product was digested with the restriction enzymes XhoI and BamHI (Takara Shuzo Co., Ltd.), and was then incorporated at the same site of pcDNA3.1(−) (Invitrogen) to construct the pcDN.A3.1. Zeo(−)/human stargazin gene.
(2) Construction of Cells Expressing GluR1 Flip/Stargazin
CHO-K1 cells passaged in culture media (Ham's F12 media (Invitrogen) supplemented with […] inactivated fetal bovine serum (Morgate), penicillin, and streptomycin (Invitrogen)) were separated using 0.05% trypsin diluted with D-PBS(−), and 0.53 mM EDTA (Invitrogen). The separated cells were suspended in culture media and harvested by centrifugation at 1,000 rpm. The harvested cells were re-suspended in D-PBS(−) and introduced into a 0.4 cm electroporation cuvette (BioRad). The pcDNA3.1(+)/human GluR1 flip gene (5 μg) and pcDNA3.1 Zeo(−)/human stargazin gene (15 μg) were added, and were introduced into the CHO-K1 cells using a Gene Pulser II (BioRad) at 950 μFd and […]. The cells were incubated overnight in culture media, and on the next day 96-well plates were seeded with 250 cells/well using selection media (Zeocin (Invitrogen) in a concentration of 250 μg/mL in culture media). Drug resistant clones were selected, and clones expressing GluR1 flip/stargazin were selected by the following assay using calcium influx as an indicator.
(3) Assay of AMPA receptor potentiation by compounds, using calcium influx as an indicator 96-well black-bottomed clear plates (Costar) were seeded with the CHO-K1/GluR1 flip/stargazin expressing cells (2×10^4 cells/well), and were incubated for 2 days at 37° C. in a CO2 incubator (Sanyo). The cell plate media was removed, and assay buffer A (D-MEM (Invitrogen), 0.1% BSA (Serological Protein, Inc.), and 20 mM HEPES (invitrogen)) was added to a concentration of 50 μL/well. A calcium indicator (Calcium Kit B-Fluo4 for TKB, Dojindo Laboratories) containing 2.5 mM probenecid (Dojindo Laboratories) was added to a concentration of 50 μL/well, and the plates were allowed to stand for 1 hour at 37° C. in a CO2 incubator. The cell plates were set up on a CellLux (PerkinElmer), a 50 pt mixture of 9 mM glutamic acid diluted (final concentration 3 mM) with assay buffer B (HBSS (Invitrogen), 0.1% BSA, and 20 mM HEPES) and the compound to be tested (concentration of compound to be detected: 30 μM) was added, and the change in the level of fluorescence over a period of 3 minutes was determined. The compound activity was calculated using the following equation, wherein the change in fluorescence in wells containing glutamic acid (final concentration 3 mM) and 300 μM cyclothiazide (TOCRIS) was defined as 100%, and the change in fluorescence in wells containing only glutamic acid (final concentration 3 mm) was defined as 0%.
Activity (%)=(X−C)/(T−C)×1.00
T: change in fluorescence in wells containing glutamic acid (final concentration 3 mM) and 300 μM cyclothiazide C: change in fluorescence in wells containing only glutamic acid (final concentration 3 mM) X: change in fluorescence in wells containing compound to be detected

T1 sequence (P42261 19-906 isoform P42261-2 limits assumed): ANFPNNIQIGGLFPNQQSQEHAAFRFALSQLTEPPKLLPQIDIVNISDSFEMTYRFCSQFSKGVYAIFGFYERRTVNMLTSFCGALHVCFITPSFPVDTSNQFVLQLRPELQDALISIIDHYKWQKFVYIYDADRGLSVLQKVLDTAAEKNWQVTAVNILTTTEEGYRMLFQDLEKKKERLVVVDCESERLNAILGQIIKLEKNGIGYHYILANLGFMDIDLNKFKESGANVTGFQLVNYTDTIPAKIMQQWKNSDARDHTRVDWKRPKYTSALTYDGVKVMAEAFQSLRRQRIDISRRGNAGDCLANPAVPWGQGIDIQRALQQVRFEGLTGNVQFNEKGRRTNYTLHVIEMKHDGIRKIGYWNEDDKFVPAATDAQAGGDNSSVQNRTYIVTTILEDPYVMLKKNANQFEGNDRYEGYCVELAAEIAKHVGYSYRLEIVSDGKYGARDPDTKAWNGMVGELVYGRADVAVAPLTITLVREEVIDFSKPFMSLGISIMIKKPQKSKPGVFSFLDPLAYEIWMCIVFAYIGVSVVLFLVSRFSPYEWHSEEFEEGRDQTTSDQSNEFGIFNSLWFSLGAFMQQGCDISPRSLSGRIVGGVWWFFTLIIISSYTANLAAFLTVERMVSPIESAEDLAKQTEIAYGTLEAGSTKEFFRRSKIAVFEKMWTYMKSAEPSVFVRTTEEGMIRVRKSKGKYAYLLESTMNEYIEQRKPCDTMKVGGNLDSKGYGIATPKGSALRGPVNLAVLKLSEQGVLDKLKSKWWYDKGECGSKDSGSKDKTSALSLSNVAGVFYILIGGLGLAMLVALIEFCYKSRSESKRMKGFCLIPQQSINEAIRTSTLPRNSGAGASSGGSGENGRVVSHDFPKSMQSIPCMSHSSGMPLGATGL
T1 sequence (Q9Y698 whole entry partner): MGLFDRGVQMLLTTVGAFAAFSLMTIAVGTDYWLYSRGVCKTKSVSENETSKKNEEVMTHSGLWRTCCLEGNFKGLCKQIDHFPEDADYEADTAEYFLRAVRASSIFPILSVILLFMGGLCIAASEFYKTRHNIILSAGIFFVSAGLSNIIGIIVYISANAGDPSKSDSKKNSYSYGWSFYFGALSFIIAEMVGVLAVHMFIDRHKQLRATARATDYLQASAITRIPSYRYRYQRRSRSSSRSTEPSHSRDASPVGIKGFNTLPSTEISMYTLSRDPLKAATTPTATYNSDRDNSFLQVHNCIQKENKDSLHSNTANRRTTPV

Row | Activity (%) of AMPA receptor potentiation (change in fluorescence, calcium influx) [%] | Compound
1 | 74 | COc1ccc(Cl)cc1NC(=O)Cn1nc(C(F)(F)F)c2c1CCN(C(C)=O)C2 [Example 226, 2-[5-Acetyl-3-(trifluoromethyl)-4,5,6,7-tetrahydro-1H-pyrazolo[4,3-c]pyridin-1-yl]-N-(5-chloro-2-methoxyphenyl)acetamide]
2 | 75 | FC(F)(F)c1nn(Cc2nc(-c3cnccn3)no2)c2c1CCCC2 [Example 277, 1-[(3-Pyrazin-2-yl-1,2,4-oxadiazol-5-yl)methyl]-3-(trifluoromethyl)-4,5,6,7-tetrahydro-1H-indazole]
3 | 88 | NC(=O)c1c(NC(=O)Cn2nc(C(F)(F)F)c3c2CNCC3)sc2c1CCCC2 [Example 185, 2-({[3-(Trifluoromethyl)-4,5,6,7-tetrahydro-1H-pyrazolo[3,4-c]pyridin-1-yl]acetyl}amino)-4,5,6,7-tetrahydro-1-benzothiophene-3-carboxamide]
4 | 78 | CNC(=O)N1CCc2c(c(C(F)(F)F)nn2CC(=O)Nc2cc(Cl)ccc2OC)C1 [Example 229, 1-{2-[(5-Chloro-2-methoxyphenyl)amino]-2-oxoethyl}-N-methyl-3-(trifluoromethyl)-1,4,6,7-tetrahydro-5H-pyrazolo[4,3-c]pyridine-5-carboxamide]
5 | 68 | CSc1sc(C(=O)NCCn2nc(C(F)(F)F)c3c2CCCC3)c2c1C(O)CCC2 (centres unmarked) [Example 287, 4-Hydroxy-3-(methylsulfanyl)-N-{2-[3-(trifluoromethyl)-4,5,6,7-tetrahydro-1H-indazol-1-yl]ethyl}-4,5,6,7-tetrahydro-2-benzothiophene-1-carboxamide]
6 | 85 | O=C(c1csc(Cn2nc(C(F)(F)F)c3c2CCCC3)n1)N1CCCC1 [Example 145, 1-{[4-(Pyrrolidin-1-ylcarbonyl)-1,3-thiazol-2-yl]methyl}-3-(trifluoromethyl)-4,5,6,7-tetrahydro-1-H-indazole]
7 | 62 | FC(F)(F)c1nn(Cc2nc(-c3cccs3)no2)c2c1COCC2 [Example 279, 1-[(3-Thiophen-2-yl-1,2,4-oxadiazol-5-yl)-methyl]-3-(trifluoromethyl)-1,4,6,7-tetrahydropyrano[4,3-c]pyrazole]
8 | 82 | Cc1cc(C(F)(F)F)n2ncc(-c3noc(Cn4nc(C(F)(F)F)c5c4CCC5)n3)c2n1 [Example 278]
9 | 86 | CSc1sc(C(=O)NCCn2nc(C(F)(F)F)c3c2CCCC3)c2nc(C)n(C)c12 [Example 280, 1,2-Dimethyl-6-(methylsulfanyl)-N-{2-[3-(trifluoromethyl)-4,5,6,7-tetrahydro-1H-indazol-1-yl]ethyl}-1H-thieno[3,4-d]imidazole-4-carboxamide]
10 | 76 | Cc1cc(C(F)(F)F)n2ncc(-c3noc(Cn4nc(C(F)(F)F)c5c4CCCC5)n3)c2n1 [Example 283, 5-Methyl-7-(trifluoromethyl)-3-(5-{[3-(trifluoromethyl)-4,5,6,7-tetrahydro-1H-indazol-1-yl]methyl}-1,2,4-oxadiazol-3-yl)pyrazolo[1,5-a]pyrimidine]
11 | 80 | COc1ccc(Cl)cc1NC(=O)Cn1nc(C(F)(F)F)c2c1CNCC2 [Example 196, N-(5-Chloro-2-methoxyphenyl)-2-[3-(trifluoromethyl)-4,5,6,7-tetrahydro-1H-pyrazolo[3,4-c]pyridin-1-yl]acetamide]
12 | 70 | NC(=O)c1c(NC(=O)Cn2nc(C(F)(F)F)c3c2CCNC3)sc2c1CCCC2 [Example 190, 2-({[3-(Trifluoromethyl)-4,5,6,7-tetrahydro-1H-pyrazolo[4,3-c]pyridin-1-yl]acetyl}amino)-4,5,6,7-tetrahydro-1-benzothiophene-3-carboxamide]
13 | 86 | FC(F)(F)c1nn(Cc2nnc(-c3cccs3)o2)c2c1CCCC2 [Example 272, 1-[(5-Thiophen-2-yl-1,3,4-oxadiazol-2-yl)methyl]-3-(trifluoromethyl)-4,5,6,7-tetrahydro-1H-indazole]
14 | 79 | Cc1cc(C)n2ncc(-c3noc(Cn4nc(C(F)(F)F)c5c4CCCC5)n3)c2n1 [Example 276, 5,7-Dimethyl-3-(5-{[3-(trifluoromethyl)-4,5,6,7-tetrahydro-1H-indazol-1-yl]methyl}-1,2,4-oxadiazol-3-yl)pyrazolo[1,5-a]pyrimidine]

Reference: patent publication US20110118236A1, “HETEROCYCLIC COMPOUND” (priority 2008, published 2011)
